Patent US20250032506A1, “GLUCOCORTICOID RECEPTOR BLOCKADE WITH MIFEPRISTONE TO SENSITIZE PANCREATIC CANCER TO IMMUNOTHERAPY” (BOARD OF REGENTS, THE UNIVERSITY OF TEXAS SYSTEM, priority 2021, published 2025)

Columns and labels:
[1] = molecular target: GR (Homo sapiens, UniProt P04150); conditions: ChIP-qPCR; co-treatment with mifepristone 100 nM and dexamethasone 100 nM, 30 min; SU86.86
Experimental: SU86.86 cells were grown to 40% confluence in 15-cm dishes in RPMI with 10% FBS, followed by 72-hour incubation in phenol red-free RPMI supplemented with 5% charcoal-stripped FBS. […] Cells were cross-linked with 1% formaldehyde, quenched with glycine, and harvested. After cell lysis with ChIP lysis buffer, cells were digested with Micrococcal Nuclease and sonicated to achieve the majority of DNA fragments between 200 bp and 500 bp. […] Chromatin was eluted from GR ChIP following the manufacturer's protocol.

[2] = system: HPAC cells; experiment: qPCR and immunoblotting of PD-L1 and MHC-I in HPAC cells; type: cell-based, human; conditions: MIFE 20 μM (qPCR) or indicated doses (immunoblot), 72 h
Description: The male PDAC cell lines HY24409 and HY24160 and the female PDAC cell line HY19636 were established from KPC mice (p48-Cre; Kras^LSL-G12D/+; Trp53^loxP/+) that were backcrossed to a C57BL/6 background (purity: ˜ 98%). (See Bardeesy, N., et al. supra). The human PDAC cell lines SU86.86 ([…]), SW1990 ([…]), BXPC-3 ([…]), Miapaca-2 ([…]), Capan-1 ([…]), ASPC-1 ([…]), Hs766T ([…]), Colo357/FG ([…]), L3.6PL ([…]), Panc28 ([…]), Capan-2 ([…]), CF-Pac-1 ([…]), Panc3 (sex unknown), Panc1 ([…]), Panc48 (sex unknown), and HPAC ([…]) were from Mien-Chie Hung's lab stock. The HY24409, HY24160, HY19636, SU86.86, SW1990, and Hs766T cell lines were cultured in RPMI 1640 (Corning, 10-041-CV) supplemented with 10% fetal bovine serum (FBS) (Gibco, 10438-034) and 1% penicillin/streptomycin (Sigma, P4333). The BXPC-3, Miapaca-2, Capan-1, ASPC-1, Colo357/FG, L3.6PL, Panc28, Capan-2, CF-Pac-1, Panc3, Panc1, Panc48, and HPAC cell lines were cultured in DMEM/F-12 (Corning, 10-092-CV) supplemented with 10% FBS and 1% penicillin/streptomycin. Cells were grown in a humidified incubator with 5% CO2 at 37° C., and low-passage stocks were maintained in a centralized lab cell bank. Short tandem repeat profiling and mycoplasma tests were done by the Cytogenetics and Cell Authentication Core at MD Anderson Cancer Center. […]

[3] = system: SW1990 cells; experiment: qPCR, immunoblotting and flow cytometry of PD-L1 and MHC-I pathway expression in SW1990 cells; type: cell-based, human
Experimental: (See Bardeesy, N., et al. supra). The human PDAC cell lines SU86.86 ([…]), SW1990 ([…]), BXPC-3 ([…]), Miapaca-2 ([…]), Capan-1 ([…]), ASPC-1 ([…]), Hs766T ([…]), Colo357/FG ([…]), L3.6PL ([…]), Panc28 ([…]), Capan-2 ([…]), CF-Pac-1 ([…]), Panc3 (sex unknown), Panc1 ([…]), Panc48 (sex unknown), and HPAC ([…]) were from Mien-Chie Hung's lab stock. […] The BXPC-3, Miapaca-2, Capan-1, ASPC-1, Colo357/FG, L3.6PL, Panc28, Capan-2, CF-Pac-1, Panc3, Panc1, Panc48, and HPAC cell lines were cultured in DMEM/F-12 (Corning, 10-092-CV) supplemented with 10% FBS and 1% penicillin/streptomycin. Cells were grown in a humidified incubator with 5% CO2 at 37° C., and low-passage stocks were maintained in a centralized lab cell bank. Short tandem repeat profiling and mycoplasma tests were done by the Cytogenetics and Cell Authentication Core at MD Anderson Cancer Center.
Membranes were blocked with 10% non-fat milk in TBST and incubated with the primary antibody at 4° C. overnight, followed by incubation with the secondary antibody conjugated with horseradish peroxidase (HRP).

[4] = system: orthotopic HY24409 tumors; experiment: CyTOF, flow cytometry, qPCR and multiplex immunofluorescent staining of orthotopic HY24409 tumors; type: in vivo, mouse
Experimental: Cancer Discov 10, 1374-1387 (2020). […] CyTOF data were analyzed by FlowJo and Cytobank.
Immunity 54, 1561-1577 e1567 (2021).

[5] = system: orthotopic HY19636 tumors; experiment: Female C57BL/6 mice bearing orthotopic HY19636 tumors; type: in vivo, mouse
Experimental: Orthotopic pancreatic tumor size was determined by MRI. Subcutaneous tumor size was measured with a caliper. […] Animal body weight was measured throughout the study.

[6] = CyTOF, orthotopic HY24409 tumors, vs vehicle or control shRNA
[7] = flow cytometric analysis, HY24409 tumors

GR, sequence (P04150 whole entry, the tested form may be a part): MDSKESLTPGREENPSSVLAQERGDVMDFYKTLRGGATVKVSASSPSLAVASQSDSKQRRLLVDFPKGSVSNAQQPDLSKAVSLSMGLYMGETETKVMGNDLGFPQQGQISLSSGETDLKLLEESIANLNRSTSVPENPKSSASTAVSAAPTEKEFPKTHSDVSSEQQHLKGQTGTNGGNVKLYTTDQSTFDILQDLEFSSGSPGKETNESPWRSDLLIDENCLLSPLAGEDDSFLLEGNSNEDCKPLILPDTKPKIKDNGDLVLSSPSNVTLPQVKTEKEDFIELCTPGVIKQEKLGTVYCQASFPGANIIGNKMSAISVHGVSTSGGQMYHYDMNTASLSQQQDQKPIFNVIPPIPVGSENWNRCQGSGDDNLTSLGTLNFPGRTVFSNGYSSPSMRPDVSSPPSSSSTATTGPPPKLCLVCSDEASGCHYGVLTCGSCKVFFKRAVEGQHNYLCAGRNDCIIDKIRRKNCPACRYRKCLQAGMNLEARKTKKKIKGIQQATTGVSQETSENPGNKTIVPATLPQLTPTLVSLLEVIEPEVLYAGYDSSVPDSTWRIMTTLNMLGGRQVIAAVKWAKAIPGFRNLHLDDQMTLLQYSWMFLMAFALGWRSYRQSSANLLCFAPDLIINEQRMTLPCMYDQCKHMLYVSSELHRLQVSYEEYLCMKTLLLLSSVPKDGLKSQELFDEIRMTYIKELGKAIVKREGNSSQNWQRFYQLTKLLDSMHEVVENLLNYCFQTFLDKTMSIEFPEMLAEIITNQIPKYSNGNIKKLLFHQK

CC#C[C@]1(O)CC[C@H]2[C@@H]3CCC4=CC(=O)CCC4=C3[C@@H](c3ccc(N(C)C)cc3)C[C@@]21C [mifepristone]
dexamethasone-induced binding of promoter sites to GR [1]: reversed | MHC-I at both mRNA and protein levels [2]: significantly upregulated | PD-L1 at both mRNA and protein levels [2]: downregulated | PD-L1 protein ([3]; Western blot and flow cytometric analysis, MIFE 72 h): downregulated | MHC-I and B2M proteins ([3]; Western blot and flow cytometry, MIFE 72 h): upregulation | mRNA levels of components in the MHC-I pathway, including HLA-A, HLA-B, HLA-C, B2M, SEC61B, and SEC61G ([3]; qPCR, MIFE 20 μM, 72 h): increased | mRNA levels of immune checkpoint ligands, including PD-L1, CD47, TDO, and SIGLEC15 ([3]; qPCR, MIFE 20 μM, 72 h): decreased | abundance of CD4+ T cells, regulatory T cells, natural killer cells, B cells, dendritic cells, macrophages, and myeloid-derived suppressor cells ([4]; CyTOF, orthotopic HY24409 tumors): No significant change | increase in percentage of granzyme B+ CTLs [4, 6]: 1.6 fold | increase in percentage of tumor-infiltrating CD8+ cells [4, 6]: 1.9 fold | cell-surface MHC-I (H-2K^b) and B2M levels in pancreatic tumors [4, 7]: higher | cell-surface PD-L1 levels in pancreatic tumors [4, 7]: lower | expression levels of intracellular TNFα, IFNγ, and IL-2 in tumor-associated CD8+ cells ([4]; flow cytometry after ex vivo stimulation with PMA and ionomycin, HY24409 tumors): significantly increased | surface levels of T cell exhaustion markers PD-1, Tim-3, and LAG-3 ([4]; flow cytometry, CTLs in HY24409 pancreatic tumors): significant reduction | multiplex immunofluorescent staining of CD3, CD8, and granzyme B in pancreatic tumors ([4]; mifepristone-treated C57BL/6 mice, HY24409): substantial enrichment | mRNA levels of MHC-I components (H-2k, H-2d, and B2m) in tumors ([4]; qPCR, HY24409 tumors): upregulated | mRNA levels of PD-L1 and known GR-activated target genes (Klf9, Snai2, and Fn1) in tumors ([4]; qPCR, HY24409 tumors): downregulated | body weight [5]: without reducing body weight | tumor growth [5]: markedly inhibited tumor growth | sensitivity of tumors to dual ICB ([5]; mifepristone with dual ICB): rendered sensitivity to dual ICB
